Results: patent US12655116B2, “Substituted isophthalic acid diamides” (Bayer Aktiengesellschaft, priority 2020, dated 2026)

Key:
ECHCG [1] = test: Post-emergence herbicidal action against ECHCG; format: in vivo, Echinochloa crus-galli; details: Echinochloa crus-galli, 504 h, dosage 20 g/ha
Outline: (§1)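 A WP or EC formulation diluted in water with 0.2% wetting agent was sprayed at 600 to 800 l/ha onto one-leaf-stage plants grown in sandy loam. About 3 weeks later, action was rated visually in percent, 100% being dead plants.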

VIOTR [2] = test: Pre-emergence herbicidal action against VIOTR; format: in vivo, Viola tricolor; details: Viola tricolor, 504 h, dosage 80 g/ha
Outline: (§2)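 Greenhouse pots of sandy loam held seeds covered with soil, onto which the compound was applied before emergence. An aqueous suspension or emulsion of WP or EC was used at 600 to 800 l/ha with 0.2% wetting agent. Percent damage was judged visually at 3 weeks.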

MATIN [3] = test: Pre-emergence herbicidal action against MATIN; format: in vivo, Matricaria inodora; details: Tripleurospermum inodorum, 504 h
Outline: as §2

STEME [4] = test: Pre-emergence herbicidal action against STEME; format: in vivo, Stellaria media; details: Stellaria media, 504 h
Outline: as §2

AMARE [5] = test: Pre-emergence herbicidal action against AMARE; format: in vivo, Amaranthus retroflexus; details: Amaranthus retroflexus, 504 h, scored visually after 3 weeks vs untreated controls, 100% = plants have died, 0% = like control plants
Outline: as §2

VIOTR [6] = test: Post-emergence herbicidal action against VIOTR; format: in vivo, Viola tricolor; details: Viola tricolor, 504 h, 20 g/ha
Outline: as §1

DIGSA [7] = test: Pre-emergence herbicidal action against DIGSA; format: in vivo, Digitaria sanguinalis; details: Digitaria sanguinalis, 504 h
Outline: as §2

ABUTH [8] = test: Post-emergence herbicidal action against ABUTH; format: in vivo, Abutilon theophrasti; details: Abutilon theophrasti, 504 h, visual assessment about 3 weeks after treatment vs untreated controls
Outline: as §1

DIGSA [9] = test: Post-emergence herbicidal action against DIGSA; format: in vivo, Digitaria sanguinalis; details: Digitaria sanguinalis, 504 h
Outline: as §1

MATIN [10] = test: Post-emergence herbicidal action against MATIN; format: in vivo, Matricaria inodora; details: Tripleurospermum inodorum, 504 h
Outline: as §1

PHBPU [11] = test: Post-emergence herbicidal action against PHBPU; format: in vivo, Pharbitis purpurea; details: Ipomoea purpurea, 504 h, dosage 20 g/ha
Outline: as §1

PHBPU [12] = test: Pre-emergence herbicidal action against PHBPU; format: in vivo, Pharbitis purpurea; details: Ipomoea purpurea, 504 h, dosage 80 g/ha
Outline: as §2

SETVI [13] = test: Post-emergence herbicidal action against SETVI; format: in vivo, Setaria viridis; details: Setaria viridis, 504 h, dosage 20 g/ha
Outline: as §1

ECHCG [14] = test: Pre-emergence herbicidal action against ECHCG; format: in vivo, Echinochloa crus-galli; details: Echinochloa crus-galli, 504 h, 80 g/ha
Outline: as §2

ALOMY = test: Pre-emergence herbicidal action against ALOMY; format: in vivo, Alopecurus myosuroides; details: Alopecurus myosuroides, 504 h; 80 g/ha, pre-emergence, scored visually after 3 weeks vs untreated controls (100% = plants have died, 0% = like control plants)
Outline: as §2

SETVI [15] = test: Pre-emergence herbicidal action against SETVI; format: in vivo, Setaria viridis; details: Setaria viridis, 504 h, dosage 80 g/ha
Outline: as §2

VERPE = test: Post-emergence herbicidal action against VERPE; format: in vivo, Veronica persica; details: Veronica persica, 504 h
Outline: as §1

AVEFA [16] = test: Pre-emergence herbicidal action against AVEFA; format: in vivo, Avena fatua; details: Avena fatua, 504 h; 80 g/ha, pre-emergence
Outline: as §2

AMARE [17] = test: Post-emergence herbicidal action against AMARE; format: in vivo, Amaranthus retroflexus; details: Amaranthus retroflexus, 504 h, 20 g/ha, visual assessment about 3 weeks after treatment, 100% = plants have died, 0% = like control plants
Outline: as §1

AVEFA [18] = test: Post-emergence herbicidal action against AVEFA; format: in vivo, Avena fatua; details: Avena fatua, 504 h, 20 g/ha, visual assessment about 3 weeks after treatment, 100% = plants have died, 0% = like control plants
Outline: as §1

STEME [19] = test: Post-emergence herbicidal action against STEME; format: in vivo, Stellaria media; details: Stellaria media, 504 h
Description: Seeds of monocotyledonous and dicotyledonous weed and crop plants are laid out in sandy loam soil in wood-fiber pots, covered with soil and cultivated in a greenhouse under good growth conditions. 2 to 3 weeks after sowing, the test plants are treated at the one-leaf stage. The compounds of the invention, formulated in the form of wettable powders (WP) or as emulsion concentrates (EC), are then sprayed onto the green parts of the plants in the form of an aqueous suspension or emulsion at a water application rate equivalent to 600 to 800 l/ha, with addition of 0.2% wetting agent. After the test plants have been left to stand in the greenhouse under optimal growth conditions for about 3 weeks, the action of the preparations is assessed visually in comparison to untreated controls (herbicidal action in percent (%): 100% activity=the plants have died, 0% activity=like control plants). […] The tables below illustrate, in an illustrative manner, the post-emergence herbicidal action of the compounds of the invention, the herbicidal activity being stated in percent.

ABUTH [20] = test: Pre-emergence herbicidal action against ABUTH; format: in vivo, Abutilon theophrasti; details: Abutilon theophrasti, 504 h
Outline: as §2

## CNC(=O)c1c(C(F)F)ccc(C(=O)Nc2nnnn2C)c1C [Example 1-44]
ECHCG [1]
  pest or weed control at 20 g/ha: 80%
VIOTR [2]
  pest or weed control at 80 g/ha: 90%
MATIN [3]; dosage 20 g/ha
  pest or weed control at 20 g/ha: 90%
MATIN [3]; dosage 80 g/ha
  pest or weed control at 80 g/ha: 90%
STEME [4]; dosage 20 g/ha
  pest or weed control at 20 g/ha: 90%
STEME [4]; dosage 80 g/ha
  pest or weed control at 80 g/ha: 90%
AMARE [5]; 20 g/ha
  pest or weed control at 20 g/ha: 100%
AMARE [5]; 80 g/ha
  pest or weed control at 80 g/ha: 100%
VIOTR [6]
  pest or weed control at 20 g/ha: 80%
DIGSA [7]; dosage 20 g/ha
  pest or weed control at 20 g/ha: 90%
DIGSA [7]; dosage 80 g/ha
  pest or weed control at 80 g/ha: 100%
ABUTH [8]; dosage 5 g/ha
  pest or weed control at 5 g/ha: 90%
ABUTH [8]; dosage 20 g/ha
  pest or weed control at 20 g/ha: 100%
DIGSA [9]; 5 g/ha
  pest or weed control at 5 g/ha: 80%
DIGSA [9]; 20 g/ha
  pest or weed control at 20 g/ha: 90%
MATIN [10]; dosage 5 g/ha
  pest or weed control at 5 g/ha: 80%
MATIN [10]; dosage 20 g/ha
  pest or weed control at 20 g/ha: 90%
PHBPU [11]
  pest or weed control at 20 g/ha: 80%
PHBPU [12]
  pest or weed control at 80 g/ha: 80%
SETVI [13]
  pest or weed control at 20 g/ha: 90%
ECHCG [14]
  pest or weed control at 80 g/ha: 90%
ALOMY
  pest or weed control at 80 g/ha: 90%
SETVI [15]
  pest or weed control at 80 g/ha: 100%
VERPE; 5 g/ha
  pest or weed control at 5 g/ha: 80%
VERPE; 20 g/ha
  pest or weed control at 20 g/ha: 100%
AVEFA [16]
  pest or weed control at 80 g/ha: 90%
AMARE [17]
  pest or weed control at 20 g/ha: 100%
AVEFA [18]
  pest or weed control at 20 g/ha: 80%
STEME [19]; 20 g/ha
  pest or weed control at 20 g/ha: 80%
STEME [19]; dosage 5 g/ha
  pest or weed control at 5 g/ha: 80%
ABUTH [20]; 80 g/ha, scored visually after 3 weeks vs untreated controls (100% = plants have died, 0% = like control plants)
  pest or weed control at 80 g/ha: 100%
ABUTH [20]; dosage 20 g/ha, scored visually after 3 weeks vs untreated controls, 100% = plants have died, 0% = like control plants, read-out: Pre-emergence action against ABUTH (herbicidal activity in percent)
  pest or weed control at 20 g/ha: 100%
